Test [1] deals with Sigma non-opioid intracellular receptor 1 (Homo sapiens, UniProt Q99720). In words: GPCRScan assay: inhibition of Sigma 1. On the set-up: radioligand conc. used [nm] 4.0 – 5.0, parental cells HEKT.
Test [2] has as its target Melanocyte-stimulating hormone receptor (Homo sapiens) (UniProt Q01726). Nature of the test: Melanocortin MC1 Eurofins-Panlabs radioligand binding assay. Particulars: Compound concentration 10.0 uM.
The target of test [3] is Cathepsin G (Homo sapiens) (UniProt P08311). In words: Inhibition of Peptidase, CTSG (Cathepsin G) at 10 µM in the Eurofins-Panlabs enzyme assay (Eurofins_assay_112510). On the set-up: substrate with concentration. Particulars: Compound concentration 10.0 uM.
The target of test [4] is Ribosomal protein S6 kinase alpha-1 (Homo sapiens) (UniProt Q15418). In words: RPS6KA1 (RSK1) Kinase screen. Conditions: Compound concentration 1.0 uM.
Test [5] has as its target Mitogen-activated protein kinase kinase kinase kinase 4 (Homo sapiens) (UniProt O95819). In words: MAP4K4 (HGK) Kinase screen. Particulars: Compound concentration 1.0 uM.
Test [6] addresses Myosin light chain kinase 2, skeletal/cardiac muscle (Homo sapiens) (UniProt Q9H1R3). In words: MYLK2 (skMLCK) Kinase screen. Conditions: Compound concentration 1.0 uM.
The target of test [7] is T1, MAP/microtubule affinity-regulating kinase 4 (Homo sapiens) (UniProt Q96L34).
T1 sequence (whole entry): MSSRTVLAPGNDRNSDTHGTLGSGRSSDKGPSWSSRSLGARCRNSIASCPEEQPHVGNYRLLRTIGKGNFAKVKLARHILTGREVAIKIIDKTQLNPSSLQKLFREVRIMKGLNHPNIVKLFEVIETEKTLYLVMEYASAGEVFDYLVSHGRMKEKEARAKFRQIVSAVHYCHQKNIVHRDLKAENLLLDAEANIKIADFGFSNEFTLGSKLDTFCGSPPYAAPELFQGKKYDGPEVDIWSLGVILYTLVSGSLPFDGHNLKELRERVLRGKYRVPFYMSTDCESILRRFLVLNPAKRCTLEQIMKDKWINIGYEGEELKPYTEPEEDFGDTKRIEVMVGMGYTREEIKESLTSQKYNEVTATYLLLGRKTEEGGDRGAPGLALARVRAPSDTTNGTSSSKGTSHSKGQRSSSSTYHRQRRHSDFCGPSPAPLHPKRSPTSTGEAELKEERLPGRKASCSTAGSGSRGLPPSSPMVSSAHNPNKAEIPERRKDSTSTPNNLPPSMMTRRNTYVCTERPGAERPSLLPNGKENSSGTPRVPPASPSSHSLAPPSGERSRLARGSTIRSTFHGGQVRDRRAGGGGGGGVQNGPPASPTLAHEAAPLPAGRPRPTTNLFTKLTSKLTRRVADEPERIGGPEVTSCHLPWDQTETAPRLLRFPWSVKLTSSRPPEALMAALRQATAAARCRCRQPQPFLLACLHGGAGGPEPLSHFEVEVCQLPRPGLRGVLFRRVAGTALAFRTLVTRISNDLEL
Nature of the test: MARK4 Kinase screen. Conditions: Compound concentration 1.0 uM.

The target of test [8] is Serine/threonine-protein kinase PAK 1 (Homo sapiens) (UniProt Q13153). In words: PAK1 Kinase screen. Particulars: Compound concentration 1.0 uM.
Test [9] concerns the target Mitogen-activated protein kinase 11 (Homo sapiens) (UniProt Q15759). Nature of the test: MAPK11 (p38 beta) Kinase screen. Conditions: Compound concentration 1.0 uM.
The target in test [10] is RAC-beta serine/threonine-protein kinase (Homo sapiens) (UniProt P31751). In words: AKT2 (PKB beta) Kinase screen. Conditions: Compound concentration 1.0 uM.
Test [11] deals with T2, 5-hydroxytryptamine receptor 2C (Homo sapiens) (UniProt P28335).
T2 sequence (whole entry): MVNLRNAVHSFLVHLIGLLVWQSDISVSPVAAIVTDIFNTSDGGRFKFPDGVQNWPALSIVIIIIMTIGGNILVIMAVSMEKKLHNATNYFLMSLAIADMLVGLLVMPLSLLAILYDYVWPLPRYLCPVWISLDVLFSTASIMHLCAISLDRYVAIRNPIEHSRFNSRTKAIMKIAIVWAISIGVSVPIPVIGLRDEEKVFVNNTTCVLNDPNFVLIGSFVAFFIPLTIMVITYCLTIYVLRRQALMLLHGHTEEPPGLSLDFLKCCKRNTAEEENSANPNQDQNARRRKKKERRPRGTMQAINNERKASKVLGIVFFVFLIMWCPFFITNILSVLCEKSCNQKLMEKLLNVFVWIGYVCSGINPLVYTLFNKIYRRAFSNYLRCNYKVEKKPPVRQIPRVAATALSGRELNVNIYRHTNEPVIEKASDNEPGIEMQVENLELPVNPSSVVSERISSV
Conditions: Compound concentration 10.0 uM.

For test [12], the target named is Receptor tyrosine-protein kinase erbB-4 (Homo sapiens) (UniProt Q15303). In words: ERBB4 (HER4) Kinase screen. Particulars: Compound concentration 1.0 uM.
Test [13] addresses T3, Serine/threonine-protein kinase D1 (Homo sapiens) (UniProt Q15139).
T3 sequence (whole entry): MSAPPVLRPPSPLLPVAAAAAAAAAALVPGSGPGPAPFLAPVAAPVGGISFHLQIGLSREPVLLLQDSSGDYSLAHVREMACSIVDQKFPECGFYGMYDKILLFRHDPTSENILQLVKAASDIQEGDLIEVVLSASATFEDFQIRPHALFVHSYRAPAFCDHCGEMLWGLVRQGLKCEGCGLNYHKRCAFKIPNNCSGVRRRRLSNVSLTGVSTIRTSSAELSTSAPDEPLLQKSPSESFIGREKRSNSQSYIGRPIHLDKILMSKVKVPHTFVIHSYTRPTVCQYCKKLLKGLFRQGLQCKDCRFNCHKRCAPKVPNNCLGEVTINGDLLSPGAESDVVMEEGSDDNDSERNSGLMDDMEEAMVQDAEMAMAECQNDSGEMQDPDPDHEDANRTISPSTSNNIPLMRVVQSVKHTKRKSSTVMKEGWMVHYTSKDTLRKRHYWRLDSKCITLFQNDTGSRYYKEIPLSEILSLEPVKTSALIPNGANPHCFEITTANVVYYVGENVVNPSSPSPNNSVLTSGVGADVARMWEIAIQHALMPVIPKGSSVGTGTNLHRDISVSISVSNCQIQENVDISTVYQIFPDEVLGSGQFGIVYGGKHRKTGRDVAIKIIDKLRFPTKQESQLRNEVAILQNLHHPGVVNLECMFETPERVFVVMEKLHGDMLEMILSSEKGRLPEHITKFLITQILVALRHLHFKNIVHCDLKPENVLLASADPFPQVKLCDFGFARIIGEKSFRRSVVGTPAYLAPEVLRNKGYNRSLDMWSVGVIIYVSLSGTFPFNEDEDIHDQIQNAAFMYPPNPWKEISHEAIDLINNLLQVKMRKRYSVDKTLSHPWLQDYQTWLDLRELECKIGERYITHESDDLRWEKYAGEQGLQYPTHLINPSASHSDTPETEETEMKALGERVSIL
In words: PRKD1 (PKC mu) Kinase screen. Conditions: Compound concentration 1.0 uM.

In test [14] the target is PAS domain-containing serine/threonine-protein kinase (Homo sapiens) (UniProt Q96RG2). In words: PASK Kinase screen. Particulars: Compound concentration 1.0 uM.
In test [15] the target is Serine/threonine-protein kinase Nek4 (Homo sapiens) (UniProt P51957). Nature of the test: NEK4 Kinase screen. Particulars: Compound concentration 1.0 uM.
Sequence of Serine/threonine-protein kinase Nek4 (Homo sapiens) (P51957 whole entry, looked up): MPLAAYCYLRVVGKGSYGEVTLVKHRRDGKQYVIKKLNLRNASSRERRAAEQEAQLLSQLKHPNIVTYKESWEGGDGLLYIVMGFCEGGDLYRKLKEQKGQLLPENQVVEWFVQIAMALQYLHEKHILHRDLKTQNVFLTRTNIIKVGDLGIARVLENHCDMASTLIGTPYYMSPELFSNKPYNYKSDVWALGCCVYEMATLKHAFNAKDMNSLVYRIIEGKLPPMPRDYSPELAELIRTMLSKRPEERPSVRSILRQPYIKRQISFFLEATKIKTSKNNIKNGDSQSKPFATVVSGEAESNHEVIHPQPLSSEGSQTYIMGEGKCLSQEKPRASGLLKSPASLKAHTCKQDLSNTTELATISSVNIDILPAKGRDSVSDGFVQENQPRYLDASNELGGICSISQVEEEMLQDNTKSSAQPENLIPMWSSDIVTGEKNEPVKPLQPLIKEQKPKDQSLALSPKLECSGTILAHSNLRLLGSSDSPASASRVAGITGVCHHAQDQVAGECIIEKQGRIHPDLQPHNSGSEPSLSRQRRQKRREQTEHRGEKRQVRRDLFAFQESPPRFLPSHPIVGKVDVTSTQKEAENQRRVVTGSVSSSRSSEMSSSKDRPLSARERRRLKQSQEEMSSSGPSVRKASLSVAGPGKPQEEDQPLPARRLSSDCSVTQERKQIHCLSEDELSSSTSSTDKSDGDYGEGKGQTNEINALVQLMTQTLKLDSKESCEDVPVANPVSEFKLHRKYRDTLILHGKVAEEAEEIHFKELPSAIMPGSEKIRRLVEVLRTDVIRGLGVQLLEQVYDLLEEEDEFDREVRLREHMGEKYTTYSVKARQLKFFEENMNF

Sequence of Receptor tyrosine-protein kinase erbB-4 (Homo sapiens) (Q15303 whole entry): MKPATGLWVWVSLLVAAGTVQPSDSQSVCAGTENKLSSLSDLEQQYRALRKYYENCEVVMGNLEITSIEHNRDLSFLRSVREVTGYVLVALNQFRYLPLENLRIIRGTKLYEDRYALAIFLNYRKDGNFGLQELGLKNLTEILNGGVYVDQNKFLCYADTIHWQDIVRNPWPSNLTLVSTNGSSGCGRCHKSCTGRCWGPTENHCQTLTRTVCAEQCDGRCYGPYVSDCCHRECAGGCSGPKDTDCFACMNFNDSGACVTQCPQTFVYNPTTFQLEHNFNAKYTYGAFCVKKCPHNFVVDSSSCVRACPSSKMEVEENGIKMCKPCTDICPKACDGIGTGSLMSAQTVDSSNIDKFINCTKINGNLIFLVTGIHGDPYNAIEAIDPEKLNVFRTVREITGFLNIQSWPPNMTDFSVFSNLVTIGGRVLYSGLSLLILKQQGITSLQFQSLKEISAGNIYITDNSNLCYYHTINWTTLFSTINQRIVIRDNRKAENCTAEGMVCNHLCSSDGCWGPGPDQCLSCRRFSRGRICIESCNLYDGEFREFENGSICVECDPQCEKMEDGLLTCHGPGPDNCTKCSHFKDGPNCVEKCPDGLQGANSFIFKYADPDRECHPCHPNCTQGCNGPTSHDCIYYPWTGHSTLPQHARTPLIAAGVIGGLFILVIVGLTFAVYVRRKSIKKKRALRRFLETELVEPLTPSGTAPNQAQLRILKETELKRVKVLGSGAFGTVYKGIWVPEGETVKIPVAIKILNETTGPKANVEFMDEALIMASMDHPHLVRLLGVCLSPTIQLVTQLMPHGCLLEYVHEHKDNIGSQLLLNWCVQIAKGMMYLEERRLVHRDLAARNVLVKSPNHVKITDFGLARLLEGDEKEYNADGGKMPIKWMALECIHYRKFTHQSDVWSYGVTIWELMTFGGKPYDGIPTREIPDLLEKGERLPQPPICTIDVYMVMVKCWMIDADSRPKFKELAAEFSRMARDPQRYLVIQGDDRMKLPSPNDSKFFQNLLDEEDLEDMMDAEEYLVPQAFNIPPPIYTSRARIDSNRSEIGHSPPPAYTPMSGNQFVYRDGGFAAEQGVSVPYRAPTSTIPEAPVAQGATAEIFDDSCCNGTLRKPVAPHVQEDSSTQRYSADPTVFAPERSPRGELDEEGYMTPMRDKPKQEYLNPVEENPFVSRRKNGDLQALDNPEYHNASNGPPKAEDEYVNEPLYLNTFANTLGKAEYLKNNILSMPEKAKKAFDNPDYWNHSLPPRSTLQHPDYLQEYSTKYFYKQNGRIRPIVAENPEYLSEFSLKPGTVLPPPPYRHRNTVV
Sequence of Mitogen-activated protein kinase 11 (Homo sapiens) (Q15759 whole entry): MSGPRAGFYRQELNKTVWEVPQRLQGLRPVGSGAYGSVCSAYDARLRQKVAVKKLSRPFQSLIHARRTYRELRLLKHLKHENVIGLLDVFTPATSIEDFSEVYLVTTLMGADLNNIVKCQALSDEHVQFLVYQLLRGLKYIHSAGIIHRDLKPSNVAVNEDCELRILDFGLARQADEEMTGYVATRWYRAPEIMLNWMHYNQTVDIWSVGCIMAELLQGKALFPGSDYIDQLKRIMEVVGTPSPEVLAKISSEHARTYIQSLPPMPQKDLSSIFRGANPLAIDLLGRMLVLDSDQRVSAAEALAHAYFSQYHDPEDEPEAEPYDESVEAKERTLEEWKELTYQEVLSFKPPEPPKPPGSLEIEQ
Sequence of Sigma non-opioid intracellular receptor 1 (Q99720 whole entry): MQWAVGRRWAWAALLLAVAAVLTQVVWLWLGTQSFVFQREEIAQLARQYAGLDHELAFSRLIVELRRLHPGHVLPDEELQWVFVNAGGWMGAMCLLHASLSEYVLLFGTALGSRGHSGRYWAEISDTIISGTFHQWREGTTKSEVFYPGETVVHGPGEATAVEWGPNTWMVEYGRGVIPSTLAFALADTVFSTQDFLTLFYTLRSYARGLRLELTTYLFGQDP
Sequence of Cathepsin G (Homo sapiens) (P08311 whole entry): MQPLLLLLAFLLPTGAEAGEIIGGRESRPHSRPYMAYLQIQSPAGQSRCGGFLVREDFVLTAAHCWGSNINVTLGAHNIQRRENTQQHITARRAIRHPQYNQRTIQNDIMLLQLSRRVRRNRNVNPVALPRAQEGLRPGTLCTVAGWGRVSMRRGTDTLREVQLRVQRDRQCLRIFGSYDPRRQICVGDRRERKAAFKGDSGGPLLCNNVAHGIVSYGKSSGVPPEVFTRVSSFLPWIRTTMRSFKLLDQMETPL
Sequence of Serine/threonine-protein kinase PAK 1 (Homo sapiens) (Q13153 whole entry): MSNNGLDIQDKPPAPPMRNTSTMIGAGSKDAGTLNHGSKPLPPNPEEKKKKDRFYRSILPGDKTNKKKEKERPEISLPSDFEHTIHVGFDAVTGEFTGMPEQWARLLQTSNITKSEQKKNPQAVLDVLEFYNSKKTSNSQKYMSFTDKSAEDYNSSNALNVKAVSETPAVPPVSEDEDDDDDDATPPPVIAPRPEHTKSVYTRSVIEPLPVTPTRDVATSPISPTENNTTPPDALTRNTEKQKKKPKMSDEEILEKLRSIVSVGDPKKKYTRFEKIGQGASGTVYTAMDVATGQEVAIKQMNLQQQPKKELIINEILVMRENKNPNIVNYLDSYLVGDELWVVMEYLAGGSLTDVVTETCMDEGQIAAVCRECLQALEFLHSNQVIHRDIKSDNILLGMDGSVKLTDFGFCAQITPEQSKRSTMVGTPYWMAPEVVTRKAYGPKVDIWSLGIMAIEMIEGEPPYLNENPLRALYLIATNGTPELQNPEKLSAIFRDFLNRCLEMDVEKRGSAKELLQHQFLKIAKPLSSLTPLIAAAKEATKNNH
Sequence of Myosin light chain kinase 2, skeletal/cardiac muscle (Homo sapiens) (Q9H1R3 whole entry): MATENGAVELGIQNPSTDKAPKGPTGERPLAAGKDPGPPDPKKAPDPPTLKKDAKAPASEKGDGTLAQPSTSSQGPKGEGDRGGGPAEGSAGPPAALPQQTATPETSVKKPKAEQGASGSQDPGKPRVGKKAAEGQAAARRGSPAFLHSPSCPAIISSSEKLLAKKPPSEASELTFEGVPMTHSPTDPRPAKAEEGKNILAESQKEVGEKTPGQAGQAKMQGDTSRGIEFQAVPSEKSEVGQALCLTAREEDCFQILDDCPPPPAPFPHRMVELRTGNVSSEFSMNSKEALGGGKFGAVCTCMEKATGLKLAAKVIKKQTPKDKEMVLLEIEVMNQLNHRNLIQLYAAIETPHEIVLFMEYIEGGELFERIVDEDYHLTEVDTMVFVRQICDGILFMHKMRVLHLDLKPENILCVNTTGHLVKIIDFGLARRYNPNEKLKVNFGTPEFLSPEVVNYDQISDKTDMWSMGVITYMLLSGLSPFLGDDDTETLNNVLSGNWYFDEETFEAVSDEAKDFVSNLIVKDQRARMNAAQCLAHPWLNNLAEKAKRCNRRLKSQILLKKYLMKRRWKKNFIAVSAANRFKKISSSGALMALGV
Sequence of RAC-beta serine/threonine-protein kinase (Homo sapiens) (P31751 whole entry): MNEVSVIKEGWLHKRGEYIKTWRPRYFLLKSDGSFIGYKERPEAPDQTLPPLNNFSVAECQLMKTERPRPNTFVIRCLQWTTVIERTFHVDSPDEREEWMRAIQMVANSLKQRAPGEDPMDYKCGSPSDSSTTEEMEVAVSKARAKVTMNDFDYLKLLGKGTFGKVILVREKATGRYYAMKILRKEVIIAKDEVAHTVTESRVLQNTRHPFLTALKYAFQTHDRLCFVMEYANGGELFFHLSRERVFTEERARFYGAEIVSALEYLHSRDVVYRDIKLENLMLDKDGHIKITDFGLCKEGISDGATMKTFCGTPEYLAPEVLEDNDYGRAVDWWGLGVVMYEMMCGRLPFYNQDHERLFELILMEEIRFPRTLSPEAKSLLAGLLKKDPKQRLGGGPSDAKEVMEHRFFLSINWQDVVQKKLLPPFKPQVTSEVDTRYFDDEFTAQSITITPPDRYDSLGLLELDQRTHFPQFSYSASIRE
Sequence of Melanocyte-stimulating hormone receptor (Homo sapiens) (Q01726 whole entry, looked up): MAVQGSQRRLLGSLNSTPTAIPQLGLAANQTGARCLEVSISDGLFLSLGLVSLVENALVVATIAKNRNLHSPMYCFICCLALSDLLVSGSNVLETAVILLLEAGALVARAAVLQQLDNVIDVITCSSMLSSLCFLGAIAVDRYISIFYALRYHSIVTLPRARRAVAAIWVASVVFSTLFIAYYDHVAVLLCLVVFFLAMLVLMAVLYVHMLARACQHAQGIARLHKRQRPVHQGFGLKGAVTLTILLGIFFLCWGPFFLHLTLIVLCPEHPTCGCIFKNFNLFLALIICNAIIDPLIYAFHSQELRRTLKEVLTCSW

As usually defined, the Ki is a measure of affinity in units of concentration, obtained from inhibition or displacement. Regarding `C[C@@H]1CN(c2cc(-c3nn(C)c4ccc(OC5(C)CC5)cc34)ncn2)C[C@H](C)O1` [MLi-2-NC], in [1], the Ki is 1.59 µM.

Usually inhibition stands for the drop in the measured response relative to a control, in per cent. With `C[C@@H]1CN(c2cc(-c3n[nH]c4ccc(OC5(C)CC5)cc34)ncn2)C[C@H](C)O1` [MLi-2], the inhibition is -1% in test [2]; 9% in [3]; 8.66% in test [4]; 17.1% in test [5]; 1.42% in test [6]; 15.7% in [7]. In addition, the inhibition was 6.76% in test [8]; 13% in test [9]; 5.53% in test [10]; -7% in test [11]; 11.9% in test [12]; 13.2% in [13]. In addition, the inhibition was -0.0985% in test [14] and 6.39% in [15].
